The text below walks through data of PMC9513230, “Inhibition of Plasmodium falciparum Hsp70-Hop partnership by 2-phenylthynesulfonamide” (Frontiers in Molecular Biosciences, 2022).

Structures are written as SMILES.

The test system of test [1] is Asexual P. falciparum strain 3D7 parasites. The test is described as follows: Parasite growth inhibition assay (SYBR Gold). It is filed as cell-based. The note with it: Plasmodium falciparum; P. falciparum 3D7, asexual blood stage, 96 h, n = 3; read-out: IC50 parasite growth. The protocol: Parasite growth without any drug present, which allowed the parasites to proliferate unrestricted, was used as negative drug control. SYBRTM Gold DNA stain (Invitrogen, ThermoFisher Scientific Inc., Germany) was used to measure the proliferation of the parasites compared to the controls as previously described ([[…] al., 2004]). Fluorescence was measured using a TECAN Spark® multimode microplate reader (Tecan Trading AG, Switzerland) and the data were analyzed using SigmaPlot, version 12 (Systat Software Inc., IL, United States).

The target in test [2] is T1, PfHop (Plasmodium falciparum, UniProt Q8ILC1).
T1 construct: His; made in house; host or cells: E. coli XL1 Blue
T1 sequence (Q8ILC1 1-564): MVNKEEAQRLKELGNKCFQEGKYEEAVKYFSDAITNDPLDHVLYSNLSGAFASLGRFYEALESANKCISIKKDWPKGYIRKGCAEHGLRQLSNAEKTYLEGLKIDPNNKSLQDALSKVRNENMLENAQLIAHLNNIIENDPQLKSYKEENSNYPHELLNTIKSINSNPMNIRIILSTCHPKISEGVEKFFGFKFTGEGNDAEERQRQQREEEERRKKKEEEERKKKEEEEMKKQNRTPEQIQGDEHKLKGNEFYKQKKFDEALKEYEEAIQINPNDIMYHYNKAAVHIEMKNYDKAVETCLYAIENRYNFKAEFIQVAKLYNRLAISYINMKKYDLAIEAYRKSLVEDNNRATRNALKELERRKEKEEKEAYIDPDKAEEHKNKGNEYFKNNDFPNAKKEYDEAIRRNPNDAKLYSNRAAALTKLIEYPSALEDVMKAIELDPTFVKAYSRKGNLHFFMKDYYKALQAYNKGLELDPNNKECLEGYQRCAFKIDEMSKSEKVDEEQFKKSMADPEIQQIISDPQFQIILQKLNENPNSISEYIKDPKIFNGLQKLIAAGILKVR
The test is described as follows: SPR equilibrium binding to immobilized PfHop. The note with it: SPR, ligand PfHop immobilized, 25°C; read-out: KD. The protocol:
The steady-state equilibrium binding kinetics for the inhibitors on either PfHsp70-1 or PfHop were investigated using BioNavis Navi 420A ILVES multi-parametric surface plasmon resonance (MP-SPR) system (BioNavis, Finland) following a previously described method ([Lebepe et al., 2020]; [Chakafana et al., 2021]). Briefly, filter-sterilized de-gassed PBS (4.3 mM Na2HPO4, 1.4 mM KH2PO4, 137 mM NaCl, 3 mM KCl, 0.005% (v/v) Tween 20, and 20 mM EDTA; pH 7.4) was used as running buffer for the assay. The ligand (0.1 μg/ml of PfHsp70-1/PfHop) was immobilized onto a carboxymethyl dextran (CMD 3-D) gold sensor chip through amine coupling. PES was injected (flow rate of 50 μl/min) as analyte at varying final concentrations (0, 1.25, 2.5, 5, 10, 20 nM). […] Steady-state equilibrium was achieved after allowing the interaction to occur for 8 min at 25°C, followed by dissociation for 4 min at 25°C, respectively. The data generated were analyzed using Data Viewer (BioNavis, Finland) after subtraction of baseline (signals generated on the chip surface without protein immobilized and buffer without inhibitor). The resultant sensorgrams were analyzed to determine the equilibrium binding affinities using Trace Drawer software version 1.8 (Ridgeview Instruments; Sweden).

Test [3] addresses PfHsp70-1-PfHop association (Plasmodium falciparum, UniProt Q8IB24+Q8ILC1). The test can be described thus: ELISA for the direct association of PfHsp70-1 and PfHop. It is filed as biochemical. The protocol: An enzyme-linked immunosorbent assay (ELISA) was used to validate the effect of PES on the direct association of PfHsp70-1 and PfHop following a previously described protocol ([Mabate et al., 2018]). Briefly, ligand (5 μg/ml of PfHsp70-1) suspended in 5 mM sodium bicarbonate (NaHCO3) at pH 9.5 was noncovalently immobilized onto a 96 well plate overnight at 4 C. BSA (5 μg/ml) was used as a ligand for the negative control. The wells were washed with 150 µl TBST which contains (Tris-buffered saline- Tween (TBST; 20 mM Tris HCl, pH 7.5, 500 mM NaCl supplemented with 0.1% Tween 20) prior to blocking with 5% fat-free milk in TBST and incubated at 25 C for 1 h. The wells were washed using TBST for a total of 10 min. Varying concentrations (0–1,000 nM) of analyte PfHop were added to the wells and incubated for 2 h at 25 °C. To remove the unbound analyte, the plate was washed with 150 µl TBST three times before the addition of rabbit-raised α-PfHop antibody (1: 4,000) followed by incubation at 25°C for 1 h. Subsequently, the wells were washed with 150 µl TBST three times before the addition of 100 µl secondary HRP conjugated goat-raised α-rabbit antibody (1: 4,000) and incubated for 45 min at 25 °C. The substrate, 3,3’5,5’ –tetramethylbenzidine (TMB) (Bio Scientific, United States) was added into the wells and incubated for 2 min at 25 C. Color development was monitored by recording absorbance readings at 370 nm at 5 min time intervals for 30 min using a SpectraMax M3 Microplate reader (Molecular Devices, United States). To determine the effect of the inhibitor, the assay was conducted in the presence of 25 µM) of PES. […] Furthermore, the assay was repeated interchanging the ligand and analyte to validate data reproducibility. The generated data were analyzed taking into account the background signal generated by BSA which served as the control protein. The absorbance values obtained at the highest concentration of each analyte were averaged to represent maximum (100%) binding. Titration curves were then generated using GraphPad Prism 9.3.1 (GraphPad Software, United States). The relative binding affinities of PES under each experimental setting were normalized relative to the affinity estimated for assay conducted in the absence of nucleotide at the highest concentration of PfHop. Statistical analysis was conducted to establish significant differences at p < 0.05 using a student t-test.

Test [4] deals with PfHsp70-1NBD (Plasmodium falciparum, UniProt Q8IB24). The test can be described thus: SPR equilibrium binding to immobilized PfHsp70-1NBD. The note with it: ligand PfHsp70-1NBD immobilized, 25°C.
Protocol: The steady-state equilibrium binding kinetics for the inhibitors on either PfHsp70-1 or PfHop were investigated using BioNavis Navi 420A ILVES multi-parametric surface plasmon resonance (MP-SPR) system (BioNavis, Finland) following a previously described method ([Lebepe et al., 2020]; [Chakafana et al., 2021]). Briefly, filter-sterilized de-gassed PBS (4.3 mM Na2HPO4, 1.4 mM KH2PO4, 137 mM NaCl, 3 mM KCl, 0.005% (v/v) Tween 20, and 20 mM EDTA; pH 7.4) was used as running buffer for the assay. The ligand (0.1 μg/ml of PfHsp70-1/PfHop) was immobilized onto a carboxymethyl dextran (CMD 3-D) gold sensor chip through amine coupling. […] Similarly, as controls nucleotides (5 µM ATP/ADP) and a known P. falciparum Hsp70 inhibitor, (−)-Epigallocatechin-3-gallate (EGCG; [Zininga et al., 2017b]) were similarly injected at varying final concentrations (0, 1.25, 2.5, 5, 10, 20 nM) over the chip surface. […] The data generated were analyzed using Data Viewer (BioNavis, Finland) after subtraction of baseline (signals generated on the chip surface without protein immobilized and buffer without inhibitor). The resultant sensorgrams were analyzed to determine the equilibrium binding affinities using Trace Drawer software version 1.8 (Ridgeview Instruments; Sweden).
The test system of test [5] is PfHsp70-1. The test can be described thus: MDH heat-induced aggregation suppression (holdase chaperone activity). It is filed as biochemical, Plasmodium falciparum. The note with it: MDH aggregation at 51°C, 360 nm; PES 5-100 nM. The protocol:
In the current study, we investigated the effect of PES on the holdase chaperone activity of PfHsp70-1. The assay was initiated by adding 1,25 µM MDH and 0,75 µM PfHsp70-1 to the assay buffer (50 mM Tris-HCl, 100 mM NaCl; pH 7.4) and heated to 51°C. Aggregation of MDH was monitored as a function of light scattering at 360 nm over 30 min at 51°C in a SpectraMax M3 (Molecular Devices, United States) microplate spectrometer. The assay was repeated at varying final concentrations (5, 15, 25, 50, 100 nM) of PES. The chaperone function of PfHsp70-1 under various experimental conditions was compared to the activity of the chaperone recorded in the absence of nucleotide. Statistical analysis was conducted using a student t-test and a p < 0.05 represented functionally significant variation.

Test [6] concerns the target T1, PfHop. The test can be described thus: Intrinsic fluorescence analysis of PfHop tertiary structure. The note with it: PfHop 4 µM with 20 µM PES, excitation 295 nm; apo state 339 nm. On the procedure:
The effect of PES on the tertiary structural conformation of recombinant PfHsp70-1 and PfHop proteins relative to the nucleotide-dependent conformations were assessed by monitoring intrinsic fluorescence as previously described ([Zininga et al., 2016]; [Lebepe et al., 2020]). […] The assay was repeated in the presence of 20 µM PES. Fluorescence emission spectra were monitored at 300–400 nm after initial excitation at 295 nm. The spectra data collected from seven spectral scans were averaged and processed taking into account the baseline (effect of buffer in the absence of protein).

PfHsp70-1-PfHop association, sequence (Q8IB24 entry or part of it, one chain of several): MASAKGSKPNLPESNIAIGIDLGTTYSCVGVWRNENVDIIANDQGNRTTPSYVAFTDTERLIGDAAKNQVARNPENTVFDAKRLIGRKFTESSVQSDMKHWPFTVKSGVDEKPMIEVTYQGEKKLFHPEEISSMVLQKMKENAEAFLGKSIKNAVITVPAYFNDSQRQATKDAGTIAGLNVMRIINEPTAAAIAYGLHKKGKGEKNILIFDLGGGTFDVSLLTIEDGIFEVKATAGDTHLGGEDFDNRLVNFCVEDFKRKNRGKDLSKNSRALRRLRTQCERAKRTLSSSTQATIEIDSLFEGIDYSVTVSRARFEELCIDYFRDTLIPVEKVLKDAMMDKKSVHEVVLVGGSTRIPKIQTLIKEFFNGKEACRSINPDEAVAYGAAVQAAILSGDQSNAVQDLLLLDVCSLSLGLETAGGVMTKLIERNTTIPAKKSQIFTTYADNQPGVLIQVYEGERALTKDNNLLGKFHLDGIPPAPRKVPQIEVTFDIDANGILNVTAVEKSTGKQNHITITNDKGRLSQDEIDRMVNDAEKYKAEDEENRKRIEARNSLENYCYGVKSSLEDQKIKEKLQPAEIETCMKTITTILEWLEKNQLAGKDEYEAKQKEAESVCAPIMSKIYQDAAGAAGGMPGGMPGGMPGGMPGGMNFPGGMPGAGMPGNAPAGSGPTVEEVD
PfHsp70-1NBD, sequence (Q8IB24 entry or part of it): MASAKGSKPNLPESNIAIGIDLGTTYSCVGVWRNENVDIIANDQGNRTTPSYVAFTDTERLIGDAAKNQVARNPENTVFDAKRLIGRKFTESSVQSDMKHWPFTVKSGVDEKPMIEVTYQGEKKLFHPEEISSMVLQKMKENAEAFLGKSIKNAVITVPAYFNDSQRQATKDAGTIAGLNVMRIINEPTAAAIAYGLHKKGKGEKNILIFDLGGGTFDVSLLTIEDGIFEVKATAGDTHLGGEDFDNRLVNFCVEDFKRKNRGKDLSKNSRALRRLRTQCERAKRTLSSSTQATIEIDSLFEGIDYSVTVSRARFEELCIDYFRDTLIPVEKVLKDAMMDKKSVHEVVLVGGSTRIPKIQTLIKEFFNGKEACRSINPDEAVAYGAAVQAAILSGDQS

Regarding `NS(=O)(=O)C#Cc1ccccc1` [PES, 2-Phenylthynesulfonamide], the IC50 is 38700 ± 700 nM in test [1]; 38.1 ± 3.6 nM in test [3] (ligand PfHop, analyte PfHsp70-1); 32.4 ± 2.1 nM in test [3] (ligand PfHsp70-1, analyte PfHop). Also, the dissociation constant (Kd) in test [2] was 707 ± 70 nM; in test [4], 7390 ± 90 nM. In addition, the “Effect on association of PfHsp70-1 and PfHop” value in test [3] (25 µM nucleotide or inhibitor) was “abrogated the interaction of PfHsp70-1 and PfHop”. Also, the “Effect on holdase chaperone activity of PfHsp70-1” value in test [5] was “inhibited the chaperone activity of PfHsp70-1 in a concentration-dependent fashion”. The compound further had a Fluorescence emission peak in test [6] of 340 nm.
